Source: ChEMBL document CHEMBL1201862, “PubChem BioAssay data set” (2004)
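A five-concentration, 48-hour dose response in 96-well plates underlies each endpoint, interpolated linearly between surrounding concentrations. GI50 is the concentration that inhibits growth by half.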 Activity calls are given as the source filed them. No stated cut-off is given here; in the data, active = GI50 up to about 1.1 µM and inactive = higher.

Tests used:
Test in all cases: inhibition of tumour cell growth, NCI panel, 48 h
[1] = system: BT-549
[2] = system: CCRF-CEM
[3] = system: COLO 205
[4] = system: DU-145
[5] = system: EKVX
[6] = system: HCT-116
[7] = system: M14
[8] = system: MCF7
[9] = system: MDA-MB-231
[10] = system: RPMI-8226
[11] = system: SF-268
[12] = system: SF-539
[13] = system: SK-MEL-28
[14] = system: SK-MEL-2
[15] = system: SK-MEL-5
[16] = system: T47D
[17] = system: UO-31

Measured: GI50

O=S1(=O)OCCOS(=O)(=O)C1C1c2ccccc2-c2ccccc21
inactive: [1] 48.8 µM | [2] 16.4 µM | [3] 70.5 µM | [4] 37.3 µM | [5] 42.8 µM | [6] 28.6 µM | [7] 38.3 µM | [8] 39 µM | [9] > 100 µM | [10] 28.6 µM | [11] 28.9 µM | [12] 22.8 µM | [13] 67.6 µM | [14] 70.3 µM | [15] 28.7 µM | [16] 93.8 µM | [17] 28.7 µM

COC(=O)C[C@H](COCc1ccccc1)NC(=O)C[C@H](COCc1ccccc1)NC(=O)OC(C)(C)C
inactive: [1] 20.7 µM | [2] > 100 µM | [3] > 100 µM | [4] 22.4 µM | [5] 18.9 µM | [6] 27.5 µM | [7] 32.8 µM | [8] 19.8 µM | [9] 36.6 µM | [10] 39.5 µM | [11] 20 µM | [12] 34.7 µM | [13] > 100 µM | [14] 37.2 µM | [15] 45.8 µM | [16] 33.9 µM | [17] 32.5 µM

CC(=O)O[C@H]1[C@@H](N2CCOCC2)C[C@H]2[C@@H]3CC=C4C[C@@H](N5CCCC5)CC[C@]4(C)[C@H]3CC[C@@]21C
inactive: [1] > 100 µM | [2] > 100 µM | [3] > 100 µM | [4] > 100 µM | [5] > 100 µM | [6] 65.8 µM | [7] 35.4 µM | [8] > 100 µM | [9] > 100 µM | [10] > 100 µM | [11] > 100 µM | [12] 73.8 µM | [13] > 100 µM | [14] > 100 µM | [15] > 100 µM | [16] > 100 µM | [17] > 100 µM

Cc1cc2nc3c(N)nn(CCN(C)C)c3nc2cc1C
inactive: [1] 57.9 µM | [2] 42.3 µM | [3] 28.1 µM | [4] 40.8 µM | [5] 58.7 µM | [6] 33.1 µM | [7] 61.2 µM | [8] 29.2 µM | [9] 33.8 µM | [10] 63.7 µM | [11] 38.5 µM | [12] 28.1 µM | [13] 53.7 µM | [14] 39 µM | [15] 24.6 µM | [16] 42.3 µM | [17] 29 µM

CCCCn1c(C)c(C(=O)CC)c(C(=O)NCCN2CCN(c3ccccc3Cl)CC2)c1C
inactive: [1] 16 µM | [2] 55.1 µM | [3] 13.9 µM | [4] 20.1 µM | [5] 16.3 µM | [6] 14.3 µM | [7] 17.6 µM | [8] 18.8 µM | [9] 17.1 µM | [10] 16.3 µM | [11] 18.2 µM | [12] 18.1 µM | [13] 20.9 µM | [14] 16.7 µM | [15] 14.1 µM | [16] 21.8 µM | [17] 12.8 µM

OC1(c2ccc(Cl)cc2)c2c(ccc3c2OCO3)C2=NCCN21 (centres undefined)
inactive: [1] 32.3 µM | [2] 37.9 µM | [3] 18.3 µM | [4] 97.7 µM | [5] 75 µM | [6] 36.8 µM | [7] 16.6 µM | [8] 33.7 µM | [9] 28.4 µM | [10] 19.2 µM | [11] 45 µM | [12] 36.1 µM | [13] 17.9 µM | [14] 21.2 µM | [15] 17.2 µM | [16] 31.7 µM | [17] 38.5 µM

C#C[C@]1(O)CC[C@H]2[C@@H]3CCC4=C/C(=N\OCCN5CCCCC5)CC[C@]4(C)[C@H]3CC[C@@]21C
inactive: [1] 5.89 µM | [2] 4.54 µM | [3] 2.12 µM | [4] 8.51 µM | [5] 8.15 µM | [6] 4.31 µM | [7] 3.27 µM | [8] 3.34 µM | [9] 13.9 µM | [10] 2.43 µM | [11] 6.44 µM | [12] 4.11 µM | [13] 8.13 µM | [14] 2.77 µM | [15] 2.23 µM | [16] 2.69 µM | [17] 4.23 µM

CN(C)C(=O)OC1=CC2CCC(C1)N2C (centres undefined)
inactive: [1] > 100 µM | [2] 28.8 µM | [3] > 100 µM | [4] > 100 µM | [5] > 100 µM | [6] > 100 µM | [7] 79.1 µM | [8] 66.1 µM | [9] > 100 µM | [10] > 100 µM | [11] > 100 µM | [12] > 100 µM | [13] > 100 µM | [14] > 100 µM | [15] > 100 µM | [16] > 100 µM | [17] 52.5 µM

CSc1nc(-c2ccc(C)cc2)c(C#N)c(=O)[nH]1
inactive: [1] > 100 µM | [2] > 100 µM | [3] > 100 µM | [4] > 100 µM | [5] > 100 µM | [6] > 100 µM | [7] > 100 µM | [8] > 100 µM | [9] > 100 µM | [10] > 100 µM | [11] > 100 µM | [12] > 100 µM | [13] > 100 µM | [14] > 100 µM | [15] > 100 µM | [16] 40.5 µM | [17] 52 µM

COc1ccc(C2NC(N)=C(C#N)C3=C2C(C)CCC3)cc1OC (centres undefined)
inactive: [1] 68.2 µM | [2] 14.6 µM | [3] 37.3 µM | [4] > 100 µM | [5] 33.4 µM | [6] > 100 µM | [7] 59.2 µM | [8] 43.2 µM | [9] 59.7 µM | [10] 10.2 µM | [11] > 100 µM | [12] 35.2 µM | [13] > 100 µM | [14] > 100 µM | [15] 24.2 µM | [16] 2.96 µM | [17] 4.65 µM

CC1CN=C(Nc2ccc(F)c(Cl)c2)S1 (centres undefined)
inactive: [1] > 100 µM | [2] 29.7 µM | [3] > 100 µM | [4] > 100 µM | [5] 43.2 µM | [6] 71 µM | [7] > 100 µM | [8] > 100 µM | [9] > 100 µM | [10] 39.3 µM | [11] 92.3 µM | [12] > 100 µM | [13] > 100 µM | [14] > 100 µM | [15] 58.5 µM | [16] 88.9 µM | [17] 29.8 µM

CCCCNC(=O)Nc1c(C(N)=O)c2n(c1C(=O)OCC)CCCCC2
inactive: [1] > 100 µM | [2] > 100 µM | [3] > 100 µM | [4] > 100 µM | [5] > 100 µM | [6] > 100 µM | [7] > 100 µM | [8] > 100 µM | [9] 21.3 µM | [10] > 100 µM | [11] > 100 µM | [12] > 100 µM | [13] > 100 µM | [14] > 100 µM | [15] > 100 µM | [16] > 100 µM | [17] > 100 µM
